{"source": "patent US20250186405A1", "about": "“Compound For Use In Treating Narcolepsy” (Alkermes, Inc., priority 2023, published 2025)", "test_system": "subjects with narcolepsy type-1 (NT1)", "assay": "Part 4 POC NT1: treatment-emergent adverse events, single doses, crossover", "type": "in vivo, human", "method": "Subjects were randomized to 1 of 4 sequences.\nEach subject received three doses of Compound A, including 1, 3, and 8 mg, and a single dose of placebo. […] All subjects underwent the washout period and completed all 4-way randomized crossover periods.\nWith one exception, each subject received three doses of Compound A, including 1, 3, and 8 mg, and a single dose of placebo. One patient withdrew from the study after the first dose due to venous access complications. […] With the exception of one patient as noted above, all subjects underwent the washout period and completed all 4-way randomized crossover periods.", "note": "“And” between values parts separate entries of the source, which are not always exact repeats. Equal entries are not always repeated.", "data": [{"molecule": "CS(=O)(=O)N[C@H]1CCCN2C(=O)COc3ccccc3C3CCC(CC3)OCC12", "note": "(stereo partly drawn) [Compound A, N-[(4S,4aR,7α,10α)-1,2,3,4,4a,5,7,8,9,10,16,17-dodecahydro-17-oxo-7,10-ethanopyrido[1,2-d][1,7,4]benzodioxaazacyclotridecin-4-yl]methanesulfonamide]", "values": [{"measurement": "TEAE by Highest Relationship: Related", "setting": "3 mg (N = 9)", "value": "3 (33.3) n (%)"}, {"measurement": "TEAE by Highest Severity: Mild", "setting": "3 mg (N = 9)", "value": "5 (55.6) n (%)"}, {"measurement": "TEAE by Highest Severity: Moderate", "setting": "3 mg (N = 9)", "value": "0 n (%)"}, {"measurement": "TEAE by Highest Severity: Severe", "setting": "3 mg (N = 9)", "value": "0 n (%)"}, {"measurement": "AE Leading to Study Drug Discontinuation", "setting": "8 mg (N = 4)", "value": "0 n (%)"}, {"measurement": "Any SAEs", "setting": "8 mg (N = 4)", "value": "0 n (%)"}, {"measurement": "Any TEAE", "setting": "8 mg (N = 4)", "value": "4 (100) n (%) and 4 n (%)"}, {"measurement": "Death", "setting": "8 mg (N = 4)", "value": "0 n (%)"}, {"measurement": "TEAE Anaemia", "setting": "8 mg (N = 4)", "value": "0 n (%)"}, {"measurement": "TEAE Application site dermatitis", "setting": "8 mg (N = 4)", "value": "1 n (%)"}, {"measurement": "TEAE Blood pressure increased", "setting": "8 mg (N = 4)", "value": "1 n (%)"}, {"measurement": "TEAE Bruxism", "setting": "8 mg (N = 4)", "value": "1 n (%)"}, {"measurement": "TEAE Dermatitis contact", "setting": "8 mg (N = 4)", "value": "0 n (%)"}, {"measurement": "TEAE Dizziness", "setting": "8 mg (N = 4)", "value": "1 n (%)"}, {"measurement": "TEAE Hyperhidrosis", "setting": "8 mg (N = 4)", "value": "1 n (%)"}, {"measurement": "TEAE Hyperlipidaemia", "setting": "8 mg (N = 4)", "value": "0 n (%)"}, {"measurement": "TEAE Insomnia", "setting": "8 mg (N = 4)", "value": "3 n (%)"}, {"measurement": "TEAE Pollakiuria", "setting": "8 mg (N = 4)", "value": "2 n (%)"}, {"measurement": "TEAE Procedural anxiety", "setting": "8 mg (N = 4)", "value": "0 n (%)"}, {"measurement": "TEAE Salivary hypersecretion", "setting": "8 mg (N = 4)", "value": "2 n (%)"}, {"measurement": "TEAE Vascular access site injury", "setting": "8 mg (N = 4)", "value": "0 n (%)"}, {"measurement": "TEAE Vessel puncture site bruise", "setting": "8 mg (N = 4)", "value": "0 n (%)"}, {"measurement": "TEAE by Highest Relationship: Not Related", "setting": "8 mg (N = 4)", "value": "0 n (%)"}, {"measurement": "TEAE by Highest Relationship: Related", "setting": "8 mg (N = 4)", "value": "4 (100) n (%)"}, {"measurement": "TEAE by Highest Severity: Mild", "setting": "8 mg (N = 4)", "value": "4 (100) n (%)"}, {"measurement": "TEAE by Highest Severity: Moderate", "setting": "8 mg (N = 4)", "value": "0 n (%)"}, {"measurement": "TEAE by Highest Severity: Severe", "setting": "8 mg (N = 4)", "value": "0 n (%)"}, {"measurement": "AE Leading to Study Drug Discontinuation", "setting": "8 mg (N = 10)", "value": "0 n (%)"}, {"measurement": "Any SAEs", "setting": "8 mg (N = 10)", "value": "0 n (%)"}, {"measurement": "Any TEAE", "setting": "8 mg (N = 10)", "value": "9 (90.0) n (%)"}, {"measurement": "Death", "setting": "8 mg (N = 10)", "value": "0 n (%)"}, {"measurement": "TEAE Anaemia", "setting": "8 mg (N = 10)", "value": "0 n (%)"}, {"measurement": "TEAE Application site dermatitis", "setting": "8 mg (N = 10)", "value": "1 (10.0) n (%)"}, {"measurement": "TEAE Back pain", "setting": "8 mg (N = 10)", "value": "1 (10.0) n (%)"}, {"measurement": "TEAE Blood pressure increased", "setting": "8 mg (N = 10)", "value": "1 (10.0) n (%)"}, {"measurement": "TEAE Bruxism", "setting": "8 mg (N = 10)", "value": "1 (10.0) n (%)"}, {"measurement": "TEAE Decreased appetite", "setting": "8 mg (N = 10)", "value": "1 (10.0) n (%)"}, {"measurement": "TEAE Dehydration", "setting": "8 mg (N = 10)", "value": "0 n (%)"}, {"measurement": "TEAE Dermatitis contact", "setting": "8 mg (N = 10)", "value": "0 n (%)"}, {"measurement": "TEAE Dizziness", "setting": "8 mg (N = 10)", "value": "2 (20.0) n (%)"}, {"measurement": "TEAE Haemoglobin decreased", "setting": "8 mg (N = 10)", "value": "1 (10.0) n (%)"}, {"measurement": "TEAE Headache", "setting": "8 mg (N = 10)", "value": "0 n (%)"}, {"measurement": "TEAE Hyperhidrosis", "setting": "8 mg (N = 10)", "value": "1 (10.0) n (%)"}, {"measurement": "TEAE Hyperlipdaemia", "setting": "8 mg (N = 10)", "value": "0 n (%)"}, {"measurement": "TEAE Insomnia", "setting": "8 mg (N = 10)", "value": "3 (30.0) n (%)"}, {"measurement": "TEAE Middle Insomnia", "setting": "8 mg (N = 10)", "value": "3 (30.0) n (%)"}, {"measurement": "TEAE Nausea", "setting": "8 mg (N = 10)", "value": "2 (20.0) n (%)"}, {"measurement": "TEAE Pollakiuria", "setting": "8 mg (N = 10)", "value": "4 (40.0) n (%)"}, {"measurement": "TEAE Salivary hypersecretion", "setting": "8 mg (N = 10)", "value": "3 (30.0) n (%)"}, {"measurement": "TEAE Sinus tachycardia", "setting": "8 mg (N = 10)", "value": "1 (10.0) n (%)"}, {"measurement": "TEAE Vascular access site injury", "setting": "8 mg (N = 10)", "value": "0 n (%)"}, {"measurement": "TEAE Vessel puncture site bruise", "setting": "8 mg (N = 10)", "value": "2 (20.0) n (%)"}, {"measurement": "TEAE Vessel puncture site pain", "setting": "8 mg (N = 10)", "value": "2 (20.0) n (%)"}, {"measurement": "TEAE by Highest Relationship: Not Related", "setting": "8 mg (N = 10)", "value": "0 n (%)"}, {"measurement": "TEAE by Highest Relationship: Related", "setting": "8 mg (N = 10)", "value": "9 (90.0) n (%)"}, {"measurement": "TEAE by Highest Severity: Mild", "setting": "8 mg (N = 10)", "value": "8 (80.0) n (%)"}, {"measurement": "TEAE by Highest Severity: Moderate", "setting": "8 mg (N = 10)", "value": "1 (10.0) n (%)"}, {"measurement": "TEAE by Highest Severity: Severe", "setting": "8 mg (N = 10)", "value": "0 n (%)"}, {"measurement": "Tolerability", "setting": "NT1, 1, 3 and 8 mg", "value": "well tolerated"}, {"measurement": "AE Leading to Study Drug Discontinuation", "setting": "Total (N = 4)", "value": "0 n (%)"}, {"measurement": "Any SAEs", "setting": "Total (N = 4)", "value": "0 n (%)"}, {"measurement": "Any TEAE", "setting": "Total (N = 4)", "value": "4 (100) n (%) and 4 n (%)"}, {"measurement": "Death", "setting": "Total (N = 4)", "value": "0 n (%)"}, {"measurement": "TEAE Anaemia", "setting": "Total (N = 4)", "value": "0 n (%)"}, {"measurement": "TEAE Application site dermatitis", "setting": "Total (N = 4)", "value": "2 n (%)"}, {"measurement": "TEAE Blood pressure increased", "setting": "Total (N = 4)", "value": "1 n (%)"}, {"measurement": "TEAE Bruxism", "setting": "Total (N = 4)", "value": "1 n (%)"}, {"measurement": "TEAE Dermatitis contact", "setting": "Total (N = 4)", "value": "1 n (%)"}, {"measurement": "TEAE Dizziness", "setting": "Total (N = 4)", "value": "1 n (%)"}, {"measurement": "TEAE Hyperhidrosis", "setting": "Total (N = 4)", "value": "1 n (%)"}, {"measurement": "TEAE Hyperlipidaemia", "setting": "Total (N = 4)", "value": "0 n (%)"}, {"measurement": "TEAE Insomnia", "setting": "Total (N = 4)", "value": "3 n (%)"}, {"measurement": "TEAE Pollakiuria", "setting": "Total (N = 4)", "value": "2 n (%)"}, {"measurement": "TEAE Procedural anxiety", "setting": "Total (N = 4)", "value": "1 n (%)"}, {"measurement": "TEAE Salivary hypersecretion", "setting": "Total (N = 4)", "value": "2 n (%)"}, {"measurement": "TEAE Vascular access site injury", "setting": "Total (N = 4)", "value": "1 n (%)"}, {"measurement": "TEAE Vessel puncture site bruise", "setting": "Total (N = 4)", "value": "1 n (%)"}, {"measurement": "TEAE by Highest Relationship: Not Related", "setting": "Total (N = 4)", "value": "0 n (%)"}, {"measurement": "TEAE by Highest Relationship: Related", "setting": "Total (N = 4)", "value": "4 (100) n (%)"}, {"measurement": "TEAE by Highest Severity: Mild", "setting": "Total (N = 4)", "value": "4 (100) n (%)"}, {"measurement": "TEAE by Highest Severity: Moderate", "setting": "Total (N = 4)", "value": "0 n (%)"}, {"measurement": "TEAE by Highest Severity: Severe", "setting": "Total (N = 4)", "value": "0 n (%)"}, {"measurement": "Any TEAE", "setting": "Total (N = 10)", "value": "9 (90.0) n (%)"}, {"measurement": "TEAE Anaemia", "setting": "Total (N = 10)", "value": "0 n (%)"}, {"measurement": "TEAE Application site dermatitis", "setting": "Total (N = 10)", "value": "2 (20.0) n (%)"}, {"measurement": "TEAE Back pain", "setting": "Total (N = 10)", "value": "1 (10.0) n (%)"}, {"measurement": "TEAE Blood pressure increased", "setting": "Total (N = 10)", "value": "1 (10.0) n (%)"}, {"measurement": "TEAE Bruxism", "setting": "Total (N = 10)", "value": "1 (10.0) n (%)"}, {"measurement": "TEAE Decreased appetite", "setting": "Total (N = 10)", "value": "2 (20.0) n (%)"}, {"measurement": "TEAE Dehydration", "setting": "Total (N = 10)", "value": "1 (10.0) n (%)"}, {"measurement": "TEAE Dermatitis contact", "setting": "Total (N = 10)", "value": "2 (20.0) n (%)"}, {"measurement": "TEAE Dizziness", "setting": "Total (N = 10)", "value": "2 (20.0) n (%)"}, {"measurement": "TEAE Haemoglobin decreased", "setting": "Total (N = 10)", "value": "1 (10.0) n (%)"}, {"measurement": "TEAE Headache", "setting": "Total (N = 10)", "value": "0 n (%)"}, {"measurement": "TEAE Hyperhidrosis", "setting": "Total (N = 10)", "value": "1 (10.0) n (%)"}, {"measurement": "TEAE Hyperlipdaemia", "setting": "Total (N = 10)", "value": "0 n (%)"}, {"measurement": "TEAE Insomnia", "setting": "Total (N = 10)", "value": "3 (30.0) n (%)"}, {"measurement": "TEAE Middle Insomnia", "setting": "Total (N = 10)", "value": "3 (30.0) n (%)"}, {"measurement": "TEAE Nausea", "setting": "Total (N = 10)", "value": "2 (20.0) n (%)"}, {"measurement": "TEAE Pollakiuria", "setting": "Total (N = 10)", "value": "4 (40.0) n (%)"}, {"measurement": "TEAE Salivary hypersecretion", "setting": "Total (N = 10)", "value": "3 (30.0) n (%)"}, {"measurement": "TEAE Sinus tachycardia", "setting": "Total (N = 10)", "value": "1 (10.0) n (%)"}, {"measurement": "TEAE Vascular access site injury", "setting": "Total (N = 10)", "value": "1 (10.0) n (%)"}, {"measurement": "TEAE Vessel puncture site bruise", "setting": "Total (N = 10)", "value": "3 (30.0) n (%)"}, {"measurement": "TEAE Vessel puncture site pain", "setting": "Total (N = 10)", "value": "2 (20.0) n (%)"}]}]}
